In patent US20200085742A1, “NANOSCALE CARRIERS FOR THE DELIVERY OR CO-DELIVERY OF CHEMOTHERAPEUTICS, NUCLEIC ACIDS AND PHOTOSENSITIZERS” (The University of Chicago, priority 2013, published 2020):
Like-named read-outs stand apart in the source and are kept apart here.

Columns and labels:
Type in all cases: cell-based, human
[1] = system: H460 cells; test: Cytotoxicity of cisplatin/GMP NCP, MTS assay
[2] = system: SQ20B cells; test: Flow cytometry, apoptosis and necrosis (Annexin V/PI)
Protocol: SQ20B cells were seeded at 1×10^6 cells per well in 6-well plates and further cultured for 24 h. […] Cells incubated with PBS served as control. After a 24 h […] incubation, the cells were irradiated with light emitting diode (LED) light (670 nm) at 60 mW/cm^2 for 15 min (equals to 54 J/cm^2). Following a further incubation of 48 h, the floating and adherent cells were collected and stained with Alexa Fluor 488 Annexin V/dead cell apoptosis kit with Alexa Fluor 488 annexin V and PI (Invitrogen, Carlsbad, Calif., United States of America) according to manufacturer's instructions. The apoptosis and necrosis was examined on a flow cytometer (LSRII Blue, Becton, Dickinson, and Company, Franklin Lakes, N.J., United States of America).

[3] = system: SQ20B cells; test: Efflux of cisplatin and pyrolipid; details: after 4-h uptake
Protocol: The efflux of cisplatin and pyrolipid in SQ20B cells was quantified as follows. SQ20B cells were seeded on 6-well plates at 5×10^5 cells/well and incubated for 24 h. […] After incubating for 4 h, the culture medium was discarded and the cells were washed with PBS three times. […] Results were expressed as the percent of the amount of cisplatin or pyrolipid being effluxed compared to the 4-h cellular uptake amount. In order to understand the cellular uptake dynamics of NCP-1-pyrolipid, the efflux of cisplatin and pyrolipid in different formulations was determined. […] The cisplatin or pyrolipid amounts detected in the culture medium were compared with the 4-h uptake amounts to give the percent efflux (Table 9).

[4] = system: SKOV-3 cells; test: Cytotoxicity of UiO formulations, MTS assay; details: read-out: cisplatin IC50
Protocol: To examine whether the efficient and simultaneous knockdown of three MDR-relevant genes including survivin, Bcl-2, and P-gp could effectively reverse the cisplatin resistance in ovarian cancer cells, the cytotoxicity of free cisplatin, UiO-Cis, and siRNA/UiO-Cis was assessed by 3-(4,5-dimethylthiazol-2-yl)-5-(3-carboxymethoxy-phenyl)-2-(4-sulfophenyl)-2H-tetrazolium (MTS) assay.

[5] = system: SQ20B cells; test: Time-dependent cellular uptake (ICP-MS, fluorimetry); details: cisplatin dose 5 μM
Protocol: The cellular uptake of NCP-1 particles in SQ20B cells was quantified by ICP-MS. […] The cells were centrifuged at 3,000 rpm for 5 min and the cell pellet was digested with 500 μL of concentrated nitric acid. […] Results were expressed as the amount of cisplatin (ng) per 10^5 cells.

[6] = system: SKOV-3 cells; test: Cytotoxicity of cisplatin/GMP NCP, MTS assay
[7] = system: H460 cells; test: Cytotoxicity of Pten and Pten-NCP
[8] = system: ES-2 cells; test: In vitro cytotoxicity, MTS assay; details: after a 72 h incubation, read-out: Cisplatin IC50
Protocol: (§1) ES-2, OVCAR-3, SKOV-3, A2780, and A2780/CDDP cells were seeded at 5000 cells per well in 96-well plates and further cultured for 24 h. The culture media were replaced by 100 μL of fresh culture media containing 10% FBS. Cisplatin solution, NCP-1, NCP-1/siRNA containing pooled siRNAs, NCP-1/siRNA containing single siRNA, and Zn control/siRNA containing pooled siRNAs were added to the cells at different cisplatin or siRNA dose. Following incubation for 24 h, the cell viability was determined by (3-(4,5-dimethylthiazol-2-yl)-5-(3-carboxymethoxyphenyl)-2-(4-sulfophenyl)-2H-tetrazolium) (MTS) assay (Promega Corporation, Madison, Wis., United States of America) according to the manufacturer's instructions. […] The cytotoxicity of Zn control/siRNAs at the siRNA doses corresponding to cisplatin IC50 values was also evaluated.

[9] = system: A2780/CDDP cells; test: In vitro cytotoxicity, MTS assay; details: after a 72 h incubation, read-out: Cisplatin IC50
Protocol: as §1

[10] = system: A2780 cells; test: In vitro cytotoxicity, MTS assay; details: after a 72 h incubation, read-out: Cisplatin IC50
Protocol: as §1

[11] = system: OVCAR-3 cells; test: In vitro cytotoxicity, MTS assay; details: after a 72 h incubation, read-out: Cisplatin IC50
Protocol: as §1

[12] = system: SKOV-3 cells; test: In vitro cytotoxicity, MTS assay; details: after a 72 h incubation, read-out: Cisplatin IC50
Protocol: as §1

[13] = system: cisplatin-resistant ovarian cancer cells; test: DNA ladder and Annexin V conjugate staining (UiO)
Protocol: Annexin V conjugate staining provided further evidence to the apoptosis induced by siRNA/UiO-Cis. siRNA loaded in the NMOFs were efficiently internalized into the cytoplasm after a 24-h incubation to trigger MDR-relevant gene silencing.

[14] = system: A2780 cells; test: Cytotoxicity of cisplatin/GMP NCP, MTS assay
Protocol: (§2) The cytotoxicity of NCP particles carrying cisplatin, GMP, and thiol siRNAs targeting survivin, Bcl-2, and ERCC-1 were evaluated against human ovarian cancer cells A2780, A2780/CDDP, SKOV-3 and human non-small cell lung cancer cell H460 by MTS assay.

[15] = system: A2780R cells; test: Cytotoxicity of cisplatin/GMP NCP, MTS assay
Protocol: as §2

[16] = system: JSQ3 cells; test: Cytotoxicity with or without irradiation, MTS assay; details: read-out: Cisplatin IC50
Protocol: (§3) The cells were seeded on 96-well plates at 2500 cells/well. […] After a 24-h incubation, the cells were irradiated with LED light (670 nm) at 60 mW/cm^2 for 15 min (equals to 54 J/cm^2). The cells without irradiation treatment served as controls. The cells were further incubated for 48 h. The cell viability was detected by (3-(4,5-dimethylthiazol-2-yl)-5-(3-carboxymethoxyphenyl)-2-(4-sulfophenyl)-2H-tetrazolium) (MTS) assay (Promega, Madison, Wis., United States of America) and the IC50 values were calculated accordingly. […] These findings were further supported by the flow cytometry results (Table 11).

[17] = system: HNSCC135 cells; test: as above; details: read-out: Cisplatin IC50
Protocol: as §3

[18] = system: SCC61 cells; test: as above; details: read-out: Cisplatin IC50
Protocol: as §3

[19] = system: SQ20B cells; test: as above; details: read-out: Cisplatin IC50
Protocol: as §3

[20] = read-out: IC50 as GMP concentration (numbers in parenthesis)

Question: What does the source list for `N.N.[Cl][Pt][Cl]` [Free cisplatin, cisplatin]?
Answer: IC50 ([1]; read-out: Cisplatin IC50): 4.6 ± 0.6 µM; Necrosis % ([2]; w/irradiation): 0.2%; Apoptosis % ([2]; w/irradiation, cisplatin 5 μM or equivalent pyrolipid): 38.1%; Apoptosis % ([2]; w/o irradiation): 37.9%; Necrosis % ([2]; w/o irradiation): 0.2%; Cisplatin efflux ([3]; 1 h): 12.0 ± 1.5%; Cisplatin efflux ([3]; 2 h): 13.5 ± 0.2%; Cisplatin efflux ([3]; 4 h): 18.2 ± 5.1%; Cisplatin efflux ([3]; 24 h): 20.0 ± 5.4%; Cisplatin efflux ([3]; 24 h, listed as free cisplatin): 20.0%; IC50 [4]: 48.5 ± 4.3 µM; Cisplatin uptake ([5]; 1 h): 51.7 ± 4.5 ng/10^5 cells; Cisplatin uptake ([5]; 2 h): 43.5 ± 1.4 ng/10^5 cells; Cisplatin uptake ([5]; 4 h): 38.1 ± 0.8 ng/10^5 cells; Cisplatin uptake ([5]; 24 h): 38.5 ± 1.3 ng/10^5 cells; IC50 ([6]; read-out: Cisplatin IC50): 4.6 ± 0.7 µM; IC50 [7]: 4.8 µM; IC50 [8]: 37.6 ± 1.9 µM; IC50 [9]: 24 ± 3.1 µM; IC50 [10]: 4.4 ± 1 µM; IC50 [11]: 44.4 ± 3.2 µM; IC50 [12]: 59.5 ± 1.2 µM; DNA fragmentation (DNA ladder) [13]: No DNA fragmentation was detectable; IC50 [14]: 0.764 ± 0.183 µM; IC50 ([15]; read-out: Cisplatin IC50): 13.6 ± 3.2 µM; IC50 ([16]; irradiation No): 11.3 ± 1.2 µM; IC50 ([16]; irradiation Yes): 13.3 ± 2.03 µM; IC50 ([17]; irradiation No): 3.37 ± 0.73 µM; IC50 ([17]; irradiation Yes (670 nm, 54 J/cm^2)): 2.65 ± 0.13 µM; IC50 ([18]; irradiation No): 3.46 ± 0.08 µM; IC50 ([18]; irradiation Yes): 3.69 ± 0.28 µM; IC50 ([19]; irradiation No): 3.92 ± 0.15 µM; IC50 ([19]; irradiation Yes): 4.18 ± 0.11 µM

Question: With gemcitabine monophosphate [GMP] as the molecule, how does the IC50 [1, 20] read?
Answer: The IC50 was 3.3 µM.

Question: And the IC50 [6, 20]?
Answer: The IC50 was 2.8 µM.

Question: What about the IC50 [15, 20] of the same molecule?
Answer: The IC50 was 0.12 µM.
